Experiments:
human GBA2 = molecular target: T1, human GBA2 (Homo sapiens, UniProt Q9HCG7); experiment: Evaluation of human GBA2 enzyme inhibitory activity (GBA2-rich membrane suspension, 4-MUG); type: biochemical; details: GBA2-rich membrane of transfected HEK293T cells, CBE preincubation, read-out: GBA2 inhibition IC50
T1 construct: The complete open reading frames for GBA2 (human NM_020944.2) was amplified from human tissue; made in house; host or cells: HEK293T cells, transiently transfected (pCDNA-3.1); washed membrane pellet used as crude enzyme
T1 sequence (Q9HCG7 1-927): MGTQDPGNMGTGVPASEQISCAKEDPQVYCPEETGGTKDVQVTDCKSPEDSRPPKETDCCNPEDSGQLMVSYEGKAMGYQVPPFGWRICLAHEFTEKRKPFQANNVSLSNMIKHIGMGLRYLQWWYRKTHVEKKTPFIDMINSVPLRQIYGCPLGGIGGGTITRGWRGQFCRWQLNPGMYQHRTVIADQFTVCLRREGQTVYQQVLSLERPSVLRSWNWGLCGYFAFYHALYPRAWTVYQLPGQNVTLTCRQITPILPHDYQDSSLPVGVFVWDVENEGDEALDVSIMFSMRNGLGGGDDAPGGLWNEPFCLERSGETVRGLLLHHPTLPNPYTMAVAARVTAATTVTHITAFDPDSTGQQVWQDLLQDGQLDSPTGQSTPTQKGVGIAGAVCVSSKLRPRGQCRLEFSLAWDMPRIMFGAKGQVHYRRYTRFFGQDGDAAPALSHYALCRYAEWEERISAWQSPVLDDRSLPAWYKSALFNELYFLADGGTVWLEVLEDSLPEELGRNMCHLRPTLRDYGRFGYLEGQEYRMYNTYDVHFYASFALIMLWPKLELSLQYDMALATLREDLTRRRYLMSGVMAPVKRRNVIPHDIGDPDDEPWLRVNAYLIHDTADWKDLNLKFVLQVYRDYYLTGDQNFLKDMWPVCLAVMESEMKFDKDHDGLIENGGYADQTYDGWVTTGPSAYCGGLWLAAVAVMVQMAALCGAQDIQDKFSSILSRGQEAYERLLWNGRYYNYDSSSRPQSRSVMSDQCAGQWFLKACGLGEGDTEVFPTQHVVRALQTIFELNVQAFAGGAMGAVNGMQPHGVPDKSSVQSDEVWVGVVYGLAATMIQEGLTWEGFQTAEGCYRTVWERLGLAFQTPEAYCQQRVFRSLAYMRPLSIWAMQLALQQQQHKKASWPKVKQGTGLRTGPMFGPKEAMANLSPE

Human GCS = molecular target: T2, Human GCS (Homo sapiens, UniProt Q16739); experiment: Evaluation of human GCS enzyme inhibitory activity (HL60 cell lysate, NBD-C6 ceramide, LC/MSMS); type: biochemical; details: 37° C. 90 min, read-out: GCS inhibition IC50
T2 construct: The lysate of HL60 cells were used in this assay; endogenous in cells; host or cells: HL60 cells (lysate supernatant)
T2 sequence (Q16739 1-394): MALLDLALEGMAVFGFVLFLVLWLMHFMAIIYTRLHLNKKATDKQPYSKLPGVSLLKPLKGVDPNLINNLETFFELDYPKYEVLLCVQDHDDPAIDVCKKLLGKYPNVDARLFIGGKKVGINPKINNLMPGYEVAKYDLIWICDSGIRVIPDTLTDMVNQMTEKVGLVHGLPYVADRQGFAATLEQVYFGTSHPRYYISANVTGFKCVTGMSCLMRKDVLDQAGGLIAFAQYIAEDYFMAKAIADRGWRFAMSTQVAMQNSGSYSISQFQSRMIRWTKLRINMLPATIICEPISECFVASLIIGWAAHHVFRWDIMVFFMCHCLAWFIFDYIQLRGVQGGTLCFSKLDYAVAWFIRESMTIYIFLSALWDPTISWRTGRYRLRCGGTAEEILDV

[1] = tested on: GBA1 (β-glucocerebrosidase mutation of N307S) in Gaucher's cell line GM00372; experiment: Evaluation of human GBA1 cellular activity (Gaucher's cell line, 6 days treatment); type: cell-based; details: GM00372 cells, DMSO-treated cells as negative control, normalized to protein
Method: The Gaucher's cell line with β-glucocerebrosidase mutation of N307S (Coriell Institute, Cat. GM00372) was cultured and expanded using EMEM with 15% FBS. The cell was passaged at least twice and could be used until the 20th passages. The cells were seeded at the density of 1.25×10^4 cells/well in 96-well plate. After cell culturing overnight, 50 μL of cell medium was discarded, and 50 μL of the diluted compound was added (with 0.3% DMSO). The cells were treated with compound for 6 days. On day 6, the cells were washed once with HBSS and incubated in HBSS for 3 h followed by lysing using 30 μL assay buffer (pH5.2 Mcllvaine buffer supplemented with 0.25% sodium taurocholate, 0.5% Triton X-100 and protease cocktail inhibitor) for 5 min at 4° C. on shaker. For GBA enzymatic assay, 15 μL of cell lysate was incubated with 5 μL of 4-MUG (6 mmol/L) for 60 min in 384 well format followed by adding 20 μL of stop solution (1 mmol/L glycine solution adjusted to pH10 using 1 mol/L NaOH). The reaction product of 4-MU was measured (excitation 355 nm, emission 450 nm) on fluorescence spectrophotometer. For the protein quantification, 4 μL of cell lysate was mixed with 36 μL of Pierce BCA reagents for 30 min. The protein was detected according to the manufacturer's instructions. Enzyme activity in cell lysate was normalized to protein concentration. The blank included substrate and assay buffer followed by addition of stop solution. Enzyme activity in cells treated with DMSO was used as a negative control, and results were represented as the percent change in enzyme activity in cells treated with each compound.

[2] = molecular target: T3, recombinant GBA enzyme (human GBA1) (Homo sapiens, UniProt P04062); experiment: Evaluation of human GBA1 enzyme inhibitory activity (4-MUG substrate); type: biochemical; details: pH5.2, 37° C. 60 min, read-out: GBA1 inhibition IC50
T3 sequence (P04062 40-536): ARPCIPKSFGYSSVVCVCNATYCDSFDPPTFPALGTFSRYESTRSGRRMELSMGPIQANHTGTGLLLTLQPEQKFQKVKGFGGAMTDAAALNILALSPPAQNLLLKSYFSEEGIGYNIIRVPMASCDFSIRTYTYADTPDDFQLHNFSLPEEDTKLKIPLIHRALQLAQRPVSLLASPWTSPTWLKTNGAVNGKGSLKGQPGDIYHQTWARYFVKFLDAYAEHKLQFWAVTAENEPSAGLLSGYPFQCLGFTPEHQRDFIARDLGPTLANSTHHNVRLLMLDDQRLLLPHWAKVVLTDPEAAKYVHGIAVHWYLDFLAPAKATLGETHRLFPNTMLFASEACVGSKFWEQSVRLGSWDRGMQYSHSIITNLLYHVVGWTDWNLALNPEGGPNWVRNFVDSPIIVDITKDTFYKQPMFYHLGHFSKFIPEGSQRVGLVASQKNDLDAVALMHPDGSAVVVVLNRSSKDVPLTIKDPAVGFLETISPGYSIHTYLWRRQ

Row | SMILES | IC50 (human GBA2) | IC50 (Human GCS) | Percent change in enzyme activity at test concentration 0.37 μM [1] | Percent change in enzyme activity at test concentration 1.1 μM [1] | Percent change in enzyme activity at test concentration 3.3 μM [1] | Percent change in enzyme activity at test concentration 10 μM [1] | Percent change in enzyme activity at test concentration […] [1] | IC50 [2]
1 | CCOc1cc(COC[C@@H](F)CCCCN2C[C@H](O)[C@@H](O)[C@H](O)[C@@H](O)C2)ccc1F (single isomer, unassigned) [Example 72] | > 10000 nM | 190 nM | 214% | 248% | 259% | 284% | 160% | 1200 nM
2 | O[C@H]1[C@H](O)[C@@H](O)CN(CCCC[C@H](F)COCc2csc(-c3ccc(F)cc3)n2)C[C@@H]1O (single isomer, unassigned) [Example 74] | > 10000 nM | 30 nM | 150% | 185% | 193% | 216% | 96% | 1700 nM
3 | Cc1nc(COC[C@@H](F)CCCCN2C[C@H](O)[C@@H](O)[C@H](O)[C@@H](O)C2)c(-c2cc(F)cc(F)c2)o1 (single isomer, unassigned) [Example 100] |  |  | 147% | 145% | 163% | 169% | 142% | 
4 | CCc1ccc(COC[C@@H](F)CCCCN2C[C@H](O)[C@@H](O)[C@H](O)[C@@H](O)C2)cc1 (single isomer, unassigned) [Example 101] | > 10000 nM | 170 nM | 157% | 209% | 219% | 227% | 157% | 1100 nM
5 | O[C@H]1[C@H](O)[C@@H](O)CN(CCCC[C@H](F)COCc2ccc(Cl)cc2)C[C@@H]1O (single isomer, unassigned) [Example 107] | > 10000 nM | 130 nM | 110% | 141% | 157% | 199% | 109% | 1200 nM
6 | Cc1ccc(COC[C@@H](F)CCCCN2C[C@H](O)[C@@H](O)[C@H](O)[C@@H](O)C2)cc1 (single isomer, unassigned) [Example 135] | > 10000 nM | 670 nM | 108% | 127% | 153% | 191% | 102% | 3200 nM
7 | O[C@H]1[C@H](O)[C@@H](O)CN(CCCC[C@H](F)COCc2ccc(-c3cc(F)cc(F)c3)nn2)C[C@@H]1O (single isomer, unassigned) [Example 139] | > 10000 nM | 220 nM | 119% | 154% | 157% | 204% | 115% | 5100 nM
8 | Cc1ccc(COCCCCCCN2C[C@H](O)[C@@H](O)[C@H](O)[C@@H](O)C2)cc1 [Example 1, (3S,4R,5R,6S)-1-{6-[(4-methylbenzyl)oxy]hexyl}-3,4,5,6-azepanetetrol] | > 10000 nM | 2000 nM | 166% | 200% | 221% | 230% | 155% | 5100 nM
9 | O[C@H]1[C@H](O)[C@@H](O)CN(CCCCCCOCc2csc(-c3cc(F)cc(F)c3)n2)C[C@@H]1O [Example 21, (3S,4R,5R,6S)-1-(6-{[2-(3,5-difluorophenyl)-1,3-thiazol-4-yl]methoxy}hexyl)-3,4,5,6-azepanetetrol] | > 10000 nM | 60 nM |  |  |  |  |  | 2400 nM
